Data as given in ChEMBL document CHEMBL1201862, “PubChem BioAssay data set” (2004).
Active and inactive are the calls of the source.

How the values were obtained:
[1] = biological target: Peroxisome proliferator-activated receptor gamma/Nuclear receptor coactivator 1 (Homo sapiens, UniProt P37231); format: functional;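 also: agonist potency as compounds enhance coactivator SRC-1 recruitment to PPARgamma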
[2] = biological target: Peroxisome proliferator-activated receptor gamma/Nuclear receptor coactivator 2 (Homo sapiens, UniProt P37231); format: functional;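 also: agonist potency for raising coactivator recruitment to the receptor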
[3] = biological target: Peroxisome proliferator-activated receptor gamma/Nuclear receptor coactivator 3 (Homo sapiens, UniProt P37231); format: functional;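 also: agonist potency for raising coactivator recruitment to the receptor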
[4] = Trypanosoma cruzi growth suppression in host cells – NIH3T3 host cells, beta-gal luminescence, confirmation (AID 2044); format: functional, cell-based;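 also: intracellular parasites grown in NIH/3T3 mouse fibroblasts as host cells; luminescent beta-galactosidase reporter signal from transgenic T. cruzi replicating inside host cells; inhibitors lower the luminescence signal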
[5] = NIH3T3 cell viability loss – ATP luminescence, mouse fibroblasts, counter-screen, dose response (AID 2010); format: functional, cell-based;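 also: cells exposed to compound for about 90 hours before reading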
[6] = cells
[7] = biological target: T1, Neuropeptide Y receptor type 2 (Homo sapiens, UniProt P49146); format: functional, cell-based;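 also: HEK293 cells expressing the receptor and a CNG channel; stimulus was NPY near EC95 followed by isoproterenol to raise cAMP; antagonist potency measured as restoring cAMP signal that NPY suppresses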
T1 sequence (P49146 whole entry): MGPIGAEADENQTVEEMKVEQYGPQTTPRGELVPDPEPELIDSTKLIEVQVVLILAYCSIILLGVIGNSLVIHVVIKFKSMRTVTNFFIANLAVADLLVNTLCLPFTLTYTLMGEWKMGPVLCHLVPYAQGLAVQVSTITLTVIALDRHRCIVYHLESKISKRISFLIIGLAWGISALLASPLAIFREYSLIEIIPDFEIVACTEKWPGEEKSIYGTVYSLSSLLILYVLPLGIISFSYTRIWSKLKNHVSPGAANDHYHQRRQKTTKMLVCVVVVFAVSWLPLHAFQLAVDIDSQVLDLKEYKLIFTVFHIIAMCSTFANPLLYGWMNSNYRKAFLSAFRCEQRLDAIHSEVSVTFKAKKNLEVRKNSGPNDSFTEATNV

[8] = biological target: T2, Neuropeptide Y receptor type 1 (Homo sapiens, UniProt P25929); format: functional;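 also: HEK293 cells with a CNG channel challenged with NPY then isoproterenol; potency as antagonist that reverses NPY suppression of cAMP signal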
T2 sequence (P25929 whole entry): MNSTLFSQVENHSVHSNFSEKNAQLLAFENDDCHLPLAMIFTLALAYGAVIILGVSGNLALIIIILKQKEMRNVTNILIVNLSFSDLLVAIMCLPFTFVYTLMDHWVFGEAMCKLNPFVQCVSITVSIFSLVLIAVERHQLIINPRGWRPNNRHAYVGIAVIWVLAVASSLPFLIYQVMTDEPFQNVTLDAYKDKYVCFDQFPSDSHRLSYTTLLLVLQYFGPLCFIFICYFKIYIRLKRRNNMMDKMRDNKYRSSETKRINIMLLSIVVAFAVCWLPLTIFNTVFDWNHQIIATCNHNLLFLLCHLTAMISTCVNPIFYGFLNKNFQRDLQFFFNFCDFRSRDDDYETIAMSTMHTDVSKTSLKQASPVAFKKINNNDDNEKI

[9] = Luminescence-based dose response cell-based high throughput screening assay for cytotoxic compounds using the IEC-6 intestinal epithelial cell line. [Related pubchem assays: 1858 (Summary AID.), 1825 (Counterscreen.), 1907 (Confirmation screen.)]; format: functional
[10] = Luminescence Cell-Based Dose Response HTS to Identify Activators of Luciferase Translation or Activity in H4 […] Cells. [Related pubchem assays: 1829 (Project Summary), 1814 (Primary HTS)]; format: functional
[11] = cells; remark: listed apart in the source
[12] = viability of uninfected HEp-2 cells – cell-based, HTS, cytotoxicity control for RSV inhibitor project, dose response (AID 2410); format: functional; conditions: human respiratory syncytial virus
[13] = biological target: T3, Serine/threonine-protein phosphatase (Homo sapiens, UniProt Q9BPW0); assay: inhibition of protein phosphatase 5 activity – biochemical, fluorescence, dose response (AID 2395)
T3 sequence (Q9BPW0 whole entry): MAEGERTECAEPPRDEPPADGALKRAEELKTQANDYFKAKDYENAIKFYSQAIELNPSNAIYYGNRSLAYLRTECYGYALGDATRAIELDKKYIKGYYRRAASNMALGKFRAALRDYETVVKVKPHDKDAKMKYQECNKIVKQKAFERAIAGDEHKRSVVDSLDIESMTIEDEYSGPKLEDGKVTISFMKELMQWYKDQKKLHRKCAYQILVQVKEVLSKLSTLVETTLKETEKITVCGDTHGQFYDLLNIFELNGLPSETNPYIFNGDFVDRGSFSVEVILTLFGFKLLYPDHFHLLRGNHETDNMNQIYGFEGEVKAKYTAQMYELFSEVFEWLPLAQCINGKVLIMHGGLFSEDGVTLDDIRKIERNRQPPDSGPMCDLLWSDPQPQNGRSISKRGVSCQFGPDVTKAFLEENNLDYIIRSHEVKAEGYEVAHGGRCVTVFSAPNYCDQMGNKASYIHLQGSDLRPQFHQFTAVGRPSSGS

[14] = biological target: T4, Caspase-3 (Homo sapiens, UniProt P42574); format: functional;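 also: Dose-response selectivity test against caspase-3 for candidate inhibitors of sentrin-specific proteases (SENPs)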
T4 sequence (P42574 whole entry): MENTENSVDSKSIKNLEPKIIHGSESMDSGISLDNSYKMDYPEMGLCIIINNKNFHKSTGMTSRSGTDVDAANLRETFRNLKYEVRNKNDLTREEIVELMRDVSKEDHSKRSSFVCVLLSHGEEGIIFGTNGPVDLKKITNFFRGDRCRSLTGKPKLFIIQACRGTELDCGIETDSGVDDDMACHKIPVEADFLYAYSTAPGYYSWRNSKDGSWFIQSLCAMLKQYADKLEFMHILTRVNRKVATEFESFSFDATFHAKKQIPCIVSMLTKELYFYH

[15] = biological target: T5, Sentrin-specific protease 7 (Homo sapiens, UniProt Q9BQF6); format: functional;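 also: Luminescence-based dose-response confirmation of ultra-high-throughput screening hits, measuring inhibition of SENP7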
T5 sequence (Q9BQF6 whole entry): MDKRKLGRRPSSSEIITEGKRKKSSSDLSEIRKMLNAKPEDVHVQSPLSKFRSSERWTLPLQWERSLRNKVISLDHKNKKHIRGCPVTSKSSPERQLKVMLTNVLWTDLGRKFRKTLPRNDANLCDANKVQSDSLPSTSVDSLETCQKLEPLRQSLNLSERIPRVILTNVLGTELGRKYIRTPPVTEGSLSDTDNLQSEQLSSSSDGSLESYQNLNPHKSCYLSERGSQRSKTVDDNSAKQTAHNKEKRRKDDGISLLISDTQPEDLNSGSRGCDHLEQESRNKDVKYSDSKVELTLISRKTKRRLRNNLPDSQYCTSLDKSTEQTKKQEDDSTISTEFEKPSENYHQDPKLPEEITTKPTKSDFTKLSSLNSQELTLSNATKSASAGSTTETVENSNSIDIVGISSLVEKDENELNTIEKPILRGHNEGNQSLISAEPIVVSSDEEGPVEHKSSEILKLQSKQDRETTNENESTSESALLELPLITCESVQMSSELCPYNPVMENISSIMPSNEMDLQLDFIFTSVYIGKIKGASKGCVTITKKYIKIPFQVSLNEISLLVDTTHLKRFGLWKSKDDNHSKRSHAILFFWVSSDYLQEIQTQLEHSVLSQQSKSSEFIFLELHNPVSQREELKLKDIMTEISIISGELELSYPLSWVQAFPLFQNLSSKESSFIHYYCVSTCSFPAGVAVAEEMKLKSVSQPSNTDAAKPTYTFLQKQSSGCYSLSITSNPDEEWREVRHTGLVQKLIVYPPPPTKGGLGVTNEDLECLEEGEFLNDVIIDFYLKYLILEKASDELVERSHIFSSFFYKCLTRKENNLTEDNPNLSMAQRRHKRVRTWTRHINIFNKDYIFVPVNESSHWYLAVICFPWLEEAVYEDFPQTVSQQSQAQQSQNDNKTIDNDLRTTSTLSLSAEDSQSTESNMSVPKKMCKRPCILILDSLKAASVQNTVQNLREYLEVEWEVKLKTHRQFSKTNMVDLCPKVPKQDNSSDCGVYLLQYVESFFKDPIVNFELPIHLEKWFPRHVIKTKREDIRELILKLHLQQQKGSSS

[16] = biological target: T6, Sentrin-specific protease 8 (Homo sapiens, UniProt Q96LD8); format: functional;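 also: luminescence read-out of SENP8 inhibition, dose-response confirmation following an ultra-high-throughput screen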
T6 sequence (Q96LD8 whole entry): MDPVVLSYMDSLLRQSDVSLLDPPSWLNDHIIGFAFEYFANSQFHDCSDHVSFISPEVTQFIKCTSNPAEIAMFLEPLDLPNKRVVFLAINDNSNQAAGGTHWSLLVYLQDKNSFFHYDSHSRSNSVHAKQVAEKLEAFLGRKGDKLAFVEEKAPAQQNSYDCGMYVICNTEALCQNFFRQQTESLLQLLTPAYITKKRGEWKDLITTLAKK

[17] = biological target: Serine/threonine-protein phosphatase PP1-alpha catalytic subunit (Homo sapiens, UniProt P62136); assay: inhibition of protein phosphatase 1 activity – biochemical, fluorescence, dose response (AID 2394)
[18] = biological target: T7, Sentrin-specific protease 6 (Homo sapiens, UniProt Q9GZR1); format: functional;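 also: Luminescence-based dose-response confirmatory assay of SENP6 inhibition, following up an ultra-high-throughput screen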
T7 sequence (Q9GZR1 whole entry): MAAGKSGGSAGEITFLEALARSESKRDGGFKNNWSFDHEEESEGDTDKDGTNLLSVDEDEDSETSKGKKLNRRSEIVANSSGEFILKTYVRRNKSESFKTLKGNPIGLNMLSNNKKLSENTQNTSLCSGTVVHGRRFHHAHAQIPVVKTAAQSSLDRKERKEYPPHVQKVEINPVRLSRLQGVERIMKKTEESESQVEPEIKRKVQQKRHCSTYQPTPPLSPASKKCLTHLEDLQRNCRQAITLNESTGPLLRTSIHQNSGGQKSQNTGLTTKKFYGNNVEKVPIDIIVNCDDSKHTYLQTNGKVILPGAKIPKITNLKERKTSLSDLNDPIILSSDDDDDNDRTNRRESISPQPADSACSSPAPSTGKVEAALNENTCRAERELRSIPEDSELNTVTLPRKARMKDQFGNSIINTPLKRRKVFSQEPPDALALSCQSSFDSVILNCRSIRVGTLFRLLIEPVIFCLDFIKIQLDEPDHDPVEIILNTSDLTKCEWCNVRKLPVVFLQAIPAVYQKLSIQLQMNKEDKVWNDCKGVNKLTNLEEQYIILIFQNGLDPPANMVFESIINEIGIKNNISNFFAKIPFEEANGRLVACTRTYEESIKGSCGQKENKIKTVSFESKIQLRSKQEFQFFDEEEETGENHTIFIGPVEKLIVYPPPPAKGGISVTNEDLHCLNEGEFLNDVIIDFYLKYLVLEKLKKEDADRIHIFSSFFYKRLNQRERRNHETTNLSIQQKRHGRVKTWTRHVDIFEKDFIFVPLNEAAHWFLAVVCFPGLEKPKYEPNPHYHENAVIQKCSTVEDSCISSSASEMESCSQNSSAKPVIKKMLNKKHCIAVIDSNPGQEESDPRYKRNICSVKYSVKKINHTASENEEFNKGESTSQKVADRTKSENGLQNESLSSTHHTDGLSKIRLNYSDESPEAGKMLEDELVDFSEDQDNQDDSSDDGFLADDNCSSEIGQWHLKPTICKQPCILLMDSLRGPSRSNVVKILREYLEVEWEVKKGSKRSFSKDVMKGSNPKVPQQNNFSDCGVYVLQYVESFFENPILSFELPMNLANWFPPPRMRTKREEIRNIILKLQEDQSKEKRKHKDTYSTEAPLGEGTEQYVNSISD

[19] = biological target: T8, Streptokinase A (Streptococcus pyogenes serotype M1, UniProt P10520); assay: viability-normalized secreted streptokinase activity reduction – plasminogen activation absorbance, OD405, dose response (AID 1914); format: functional, Streptococcus pyogenes M1 GAS;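 also: secreted streptokinase activity via plasminogen activation per viability signal from cell pellet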
T8 sequence (P10520 whole entry): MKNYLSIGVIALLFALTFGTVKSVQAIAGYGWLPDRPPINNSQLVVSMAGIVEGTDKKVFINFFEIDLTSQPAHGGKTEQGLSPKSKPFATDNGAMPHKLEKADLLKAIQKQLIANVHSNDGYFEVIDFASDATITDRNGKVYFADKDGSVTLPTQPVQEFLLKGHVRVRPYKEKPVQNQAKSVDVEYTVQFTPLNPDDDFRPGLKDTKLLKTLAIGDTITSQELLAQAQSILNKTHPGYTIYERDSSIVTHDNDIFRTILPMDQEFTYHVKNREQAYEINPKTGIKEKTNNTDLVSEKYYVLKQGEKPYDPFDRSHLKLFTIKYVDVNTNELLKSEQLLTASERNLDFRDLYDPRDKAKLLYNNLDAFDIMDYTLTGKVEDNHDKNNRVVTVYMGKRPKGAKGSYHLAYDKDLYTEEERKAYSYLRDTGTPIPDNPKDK

[20] = Luminescence Cell-Based Dose Retest to Confirm Inhibitors of Cancer Stem Cells. [Related pubchem assays (depositor defined):AID2717, AID2721]; format: functional; conditions: Homo sapiens
[21] = test system: Streptococcus; assay: GAS UMAA2166 growth inhibition – luminescence, BacTiterGlo, counter-screen for streptokinase expression inhibitor project, dose response (AID 1915); format: functional, organism-based;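 also: potency for reduction of bacterial viability or growth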
[22] = test system: Streptococcus sp. 'group A'; assay: Streptococcus pyogenes SK(-)GAS viability under kanamycin – luminescence, BacTiterGlo, confirmation, counter-screen for streptokinase expression inhibitor project, dose response (AID 1900); format: functional, organism-based
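For AC50 in this document: cells exposed to compound for roughly 70 hours or longer before luminescence read.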

Peroxisome proliferator-activated receptor gamma/Nuclear receptor coactivator 3, sequence (P37231 whole entry): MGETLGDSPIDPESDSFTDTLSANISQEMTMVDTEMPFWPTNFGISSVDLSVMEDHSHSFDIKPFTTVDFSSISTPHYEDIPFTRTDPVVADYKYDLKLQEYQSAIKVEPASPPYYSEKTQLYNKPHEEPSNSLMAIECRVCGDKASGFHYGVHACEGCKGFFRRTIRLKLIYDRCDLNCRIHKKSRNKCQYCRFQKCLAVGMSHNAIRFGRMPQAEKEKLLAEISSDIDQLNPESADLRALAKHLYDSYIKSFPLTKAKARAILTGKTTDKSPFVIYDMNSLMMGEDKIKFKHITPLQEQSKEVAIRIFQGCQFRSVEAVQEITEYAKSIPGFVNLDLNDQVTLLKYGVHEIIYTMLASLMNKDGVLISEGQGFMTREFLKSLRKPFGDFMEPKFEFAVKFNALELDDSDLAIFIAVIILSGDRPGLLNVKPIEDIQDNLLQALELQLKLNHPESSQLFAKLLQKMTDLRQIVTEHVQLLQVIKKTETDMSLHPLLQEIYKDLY
Peroxisome proliferator-activated receptor gamma/Nuclear receptor coactivator 3, sequence (Q9Y6Q9 whole entry, further chain): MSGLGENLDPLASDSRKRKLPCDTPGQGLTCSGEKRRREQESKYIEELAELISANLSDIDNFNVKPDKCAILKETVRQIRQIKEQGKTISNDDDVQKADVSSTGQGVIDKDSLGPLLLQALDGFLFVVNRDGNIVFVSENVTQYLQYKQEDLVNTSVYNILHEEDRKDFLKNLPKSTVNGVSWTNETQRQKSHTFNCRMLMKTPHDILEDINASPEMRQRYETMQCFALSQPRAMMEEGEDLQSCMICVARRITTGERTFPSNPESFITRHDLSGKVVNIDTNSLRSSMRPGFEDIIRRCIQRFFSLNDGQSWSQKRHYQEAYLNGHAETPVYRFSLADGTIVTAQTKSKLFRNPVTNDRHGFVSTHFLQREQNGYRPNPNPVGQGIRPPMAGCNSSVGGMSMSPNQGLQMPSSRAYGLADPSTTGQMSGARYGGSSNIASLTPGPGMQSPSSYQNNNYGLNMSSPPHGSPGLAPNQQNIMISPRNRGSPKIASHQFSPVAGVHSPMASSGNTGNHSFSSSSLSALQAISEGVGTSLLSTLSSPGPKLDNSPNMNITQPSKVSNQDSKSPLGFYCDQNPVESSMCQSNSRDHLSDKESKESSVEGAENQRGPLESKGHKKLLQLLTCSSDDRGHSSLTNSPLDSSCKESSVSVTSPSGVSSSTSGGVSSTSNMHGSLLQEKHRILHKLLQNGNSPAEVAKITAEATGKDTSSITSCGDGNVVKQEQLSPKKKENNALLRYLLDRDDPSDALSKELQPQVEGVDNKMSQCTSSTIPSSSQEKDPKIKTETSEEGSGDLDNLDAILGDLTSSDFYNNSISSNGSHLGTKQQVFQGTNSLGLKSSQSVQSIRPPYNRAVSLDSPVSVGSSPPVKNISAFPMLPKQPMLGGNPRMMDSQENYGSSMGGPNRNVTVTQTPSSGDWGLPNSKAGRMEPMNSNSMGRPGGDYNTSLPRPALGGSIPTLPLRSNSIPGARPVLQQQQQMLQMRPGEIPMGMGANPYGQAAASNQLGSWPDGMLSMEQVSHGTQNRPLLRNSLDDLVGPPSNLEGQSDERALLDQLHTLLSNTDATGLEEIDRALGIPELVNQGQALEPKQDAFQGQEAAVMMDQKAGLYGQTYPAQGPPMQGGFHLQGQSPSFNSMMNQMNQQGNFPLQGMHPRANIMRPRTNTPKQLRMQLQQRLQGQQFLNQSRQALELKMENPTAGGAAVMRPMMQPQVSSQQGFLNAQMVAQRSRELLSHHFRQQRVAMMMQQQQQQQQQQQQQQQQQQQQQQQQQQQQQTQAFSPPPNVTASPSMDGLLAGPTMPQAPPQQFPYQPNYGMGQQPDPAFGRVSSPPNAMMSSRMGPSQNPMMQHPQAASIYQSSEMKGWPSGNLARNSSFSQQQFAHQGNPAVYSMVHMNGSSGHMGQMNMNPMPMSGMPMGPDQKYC
Peroxisome proliferator-activated receptor gamma/Nuclear receptor coactivator 2, sequence (P37231 whole entry): as the sequence (P37231 whole entry) above
Peroxisome proliferator-activated receptor gamma/Nuclear receptor coactivator 2, sequence (Q15596 whole entry, further chain): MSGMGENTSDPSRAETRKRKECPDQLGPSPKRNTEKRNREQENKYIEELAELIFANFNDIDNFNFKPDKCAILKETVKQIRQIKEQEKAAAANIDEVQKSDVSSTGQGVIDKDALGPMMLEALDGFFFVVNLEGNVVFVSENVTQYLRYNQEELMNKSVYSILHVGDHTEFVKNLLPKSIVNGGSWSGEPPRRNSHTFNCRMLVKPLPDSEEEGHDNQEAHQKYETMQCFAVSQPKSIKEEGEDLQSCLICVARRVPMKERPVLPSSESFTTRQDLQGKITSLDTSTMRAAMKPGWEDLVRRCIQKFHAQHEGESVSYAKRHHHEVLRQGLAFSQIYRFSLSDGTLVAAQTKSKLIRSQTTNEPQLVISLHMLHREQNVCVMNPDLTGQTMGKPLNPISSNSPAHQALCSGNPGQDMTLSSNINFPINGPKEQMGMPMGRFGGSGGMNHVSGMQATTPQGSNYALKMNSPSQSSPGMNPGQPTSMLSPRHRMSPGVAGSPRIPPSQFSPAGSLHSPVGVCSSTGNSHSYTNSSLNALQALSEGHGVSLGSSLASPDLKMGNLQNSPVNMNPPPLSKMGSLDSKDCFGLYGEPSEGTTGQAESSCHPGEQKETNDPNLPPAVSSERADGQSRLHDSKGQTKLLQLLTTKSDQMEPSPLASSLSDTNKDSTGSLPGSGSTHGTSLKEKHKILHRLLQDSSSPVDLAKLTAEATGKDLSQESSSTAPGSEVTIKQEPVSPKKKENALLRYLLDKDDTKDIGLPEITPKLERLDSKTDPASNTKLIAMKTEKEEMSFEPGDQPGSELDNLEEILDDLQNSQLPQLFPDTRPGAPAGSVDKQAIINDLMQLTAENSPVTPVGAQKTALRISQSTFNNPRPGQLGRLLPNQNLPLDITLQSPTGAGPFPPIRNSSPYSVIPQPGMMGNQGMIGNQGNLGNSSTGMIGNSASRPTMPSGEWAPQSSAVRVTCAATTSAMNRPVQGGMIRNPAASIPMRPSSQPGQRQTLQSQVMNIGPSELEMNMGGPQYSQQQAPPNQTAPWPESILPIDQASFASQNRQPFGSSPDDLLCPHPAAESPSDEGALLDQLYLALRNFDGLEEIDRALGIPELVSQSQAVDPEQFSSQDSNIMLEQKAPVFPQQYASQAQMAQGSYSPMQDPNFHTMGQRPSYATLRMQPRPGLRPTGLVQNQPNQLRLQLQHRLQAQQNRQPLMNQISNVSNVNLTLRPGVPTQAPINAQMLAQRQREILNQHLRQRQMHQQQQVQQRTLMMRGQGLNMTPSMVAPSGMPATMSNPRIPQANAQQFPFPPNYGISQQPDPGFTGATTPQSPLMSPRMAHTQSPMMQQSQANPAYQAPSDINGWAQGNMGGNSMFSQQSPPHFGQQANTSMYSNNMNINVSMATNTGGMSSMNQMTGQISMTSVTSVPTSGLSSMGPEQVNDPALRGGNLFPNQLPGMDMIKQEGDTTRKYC
Serine/threonine-protein phosphatase PP1-alpha catalytic subunit, sequence (P62136 whole entry): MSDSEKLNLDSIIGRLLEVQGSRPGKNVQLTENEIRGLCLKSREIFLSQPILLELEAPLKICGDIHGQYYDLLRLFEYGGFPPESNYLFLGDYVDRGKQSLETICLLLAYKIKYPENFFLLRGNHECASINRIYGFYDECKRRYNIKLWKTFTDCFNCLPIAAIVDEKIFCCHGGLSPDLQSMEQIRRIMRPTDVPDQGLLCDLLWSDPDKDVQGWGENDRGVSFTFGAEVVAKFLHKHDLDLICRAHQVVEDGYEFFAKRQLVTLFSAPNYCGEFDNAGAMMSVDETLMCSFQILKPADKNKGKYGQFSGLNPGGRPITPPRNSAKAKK

## O=C(CSc1ccc2nnc(-c3ccc(Cl)cc3)n2n1)N1CCCc2ccccc21
[1]
  EC50: 50.1 µM (not active)
[2]
  EC50: 27.4 µM (not active)
[3]
  EC50: 52.3 µM (not active)

## CCOc1ccc(OCC(O)CNC2CCN(Cc3ccccc3)CC2)cc1 (configuration not stated)
[4]
  EC50: < 0.1 µM (active)
[5]
  EC50: 9.8 µM (active)
[6]
  EC50: 0.255 µM (active)

## CCOc1ccc(NC(=S)N2CCC(C(O)(c3ccccc3)c3ccccc3)CC2)cc1
[7]
  IC50: 0.22 µM (active)
[8]
  IC50: > 35 µM (not active)

## Cc1ccc(Nc2nc(-c3ccncc3)cs2)cc1
[9]
  IC50: 2.71 µM (active)
[4]
  EC50: 0.239 µM (active)
[10]
  EC50: 0.149 µM (active)
[5]
  EC50: 8.83 µM (active)

## Cc1ccc2cc(CN(CC3CCCO3)C(S)=NCc3ccco3)c(O)nc2c1C (configuration not stated)
[11]
  IC50: 24.6 µM (active)
[12]
  CC50: 24.3 µM (active)

## CN1CC[C@@]2(C)c3cc(O)ccc3N(C)C2O1 (some centres not stated)
[13]
  IC50: > 7.45 µM (active)
[14]
  IC50: > 100 µM (inactive)
[15]
  IC50: 14.3 µM (active)
[16]
  IC50: 10.7 µM (active)
[17]
  IC50: 52.3 µM (not active)
[18]
  IC50: 11.9 µM (active)

## CC(C)COC(=O)c1cccc2c1-c1ccccc1/C2=N\O
[19]
  EC50: > 50 µM (not active)
[7]
  IC50: 4.96 µM (active)
[12]
  CC50: > 50 µM (active)
[20]
  AC50: 5.69 µM (active)
[21]
  EC50: > 150 µM (not active)
[22]
  EC50: 4.74 µM (active)
[8]
  IC50: 6.46 µM (active)

## O=C(/C=C/c1ccc(OCc2c(F)cccc2Cl)cc1)N1CCOCC1
[11]
  IC50: 10.4 µM (active)
[12]
  CC50: 15.9 µM (active)

## CCOC(=O)c1ccc(NC(=O)CCc2nc(-c3ccc(C)cc3)no2)cc1
[1]
  EC50: > 79.4 µM (not active)
[2]
  EC50: > 79.4 µM (not active)
[3]
  EC50: > 79.4 µM (not active)
